Where “and” joins values, the source holds several entries; their conditions need not be identical. Equal values may be shown once. Read-outs that look alike come from different tables or passages of the source.
Assays:
in vitro [1] = details: human
HCoV-229E [2] = assay: MTT-based antiviral assay (protection from virus-induced CPE) in HCoV-229E-infected MRC-5 cells; format: cell-based, Human Coronavirus strain 229E; details: for % Antiviral Activity (Range) / EC50: HCoV-229E-infected MRC-5, 6 days; for % Antiviral Activity (Range): range over the assay conc. range of each compound; for maximum antiviral effect: MRC-5, maximum over concentrations tested; for EC50: MRC5, 144 h, no unit in head (assay conc. and CC50 columns in µM)
HCoV-229E [3] = assay: qRT-PCR viral load in supernatants of HCoV-229E-infected MRC-5 cells; format: cell-based, Human Coronavirus strain 229E
recombinant SCoV-2 PLpro = recombinant SCoV-2 PLpro (Severe acute respiratory syndrome coronavirus 2, UniProt P0DTD1); assay: SCoV-2 PLpro inhibition assay (peptide-AMC fluorescence); format: biochemical, SARS-CoV-2; details: 60 μM peptide-AMC, 37°C, 45 min
SCoV-2 [4] = test system: SCoV-2; parameters: method as in Meyer et al., [2020]; details: at clinically relevant concentrations; ref Meyer et al., [2020]; cited from earlier work
Vero E6 cells = assay: Cytotoxicity assay in Vero E6 cells (Hoechst 33342 / Sytox orange imaging); details: for cytotoxicity: Vero E6
in vitro [5] = details: African green monkey, % Cell Viability, Vero E6, 30 h
SCoV-2 [6] = assay: Immunofluorescence antiviral screening assay (SCoV-2 nucleocapsid staining) in Vero E6 cells; format: cell-based, SARS-CoV-2
Protocol: The antiviral activity of the selected compound against SCoV-2 was analysed by immunofluorescent assay in a 96-well plate. For this, ~10^4 Vero E6 cells per well were seeded and grown to ≥80% confluency. At this stage, cells in replicate wells were treated with a safe dose (identified from the cytotoxicity studies) of the selected compound or with 10μM Remdesivir. These assays also included the necessary negative controls for comparison. The cells were infected with SCoV-2 at 0.1 MOI and, post-30 h incubation, fixed in 4% paraformaldehyde, permeabilized with 0.3% Tween-20 and stained with anti-mouse mAb specific to SCoV-2 Nucleocapsid (primary) followed by staining with Alexafluor 568-labelled anti-mouse antibody (secondary). Prior to mounting, monolayers were treated with Hoechst 33342 to stain the nuclei and the images were captured using ImageXpress Micro Confocal (Molecular devices) at 10 × magnification (16 images/well). The data was analysed in MetaXpress software using a multi-wavelength cell scoring module and the cells double-positive for the viral nucleocapsid as well as nuclei were counted and compared with that in the controls.

[7] = Cytotoxicity assay in Vero E6 cells (Hoechst 33342 / Sytox orange imaging); details: African green monkey
PLpro = details: reported value, reference not printed at the place; cited from earlier work
[8] = HCoV-229E-infected MRC-5, 6 days, range over the assay conc. range
[9] = MRC-5 cells (human lung fibroblasts), uninfected
[10] = MRC-5, across the tested concentrations

Compound: C[C@@H]1O[C@@H](OC[C@H]2O[C@@H](Oc3c(-c4ccc(O)c(O)c4)oc4cc(O)cc(O)c4c3=O)[C@H](O)[C@@H](O)[C@@H]2O)[C@H](O)[C@H](O)[C@H]1O [Rutin]
- CC50 (in vitro [1]): 351 µM
- cytotoxicity (in vitro [1]): -5.9 to 89.5%
- virus-infected cells protected from virus-induced CPE (HCoV-229E [2]; HCoV-229E, MRC-5, concentration not stated at the place): about 37%
- % Antiviral Activity (Range) (HCoV-229E [2]): -1.1 to +37.1%
- log10 inhibition / reduction in viral titers (HCoV-229E [3]): ~0.2 log10
- reduction in viral titers (HCoV-229E [3]): 38.44%
- % Reduction in Viral Load (Range) (HCoV-229E [3]; [8]): +38.4 to -455.4%
- Log10 Reduction in Viral Load (Range) (HCoV-229E [3]; [8]): +0.21 to -0.74 Log10

Compound: Cc1cc2nc3c(=O)[nH]c(=O)nc-3n(C[C@H](O)[C@H](O)[C@H](O)COP(=O)(O)OP(=O)(O)OC[C@H]3O[C@@H](n4cnc5c(N)ncnc54)[C@H](O)[C@@H]3O)c2cc1C [FAD, Flavin adenine dinucleotide]
- CC50 at 6 days (in vitro [1]; [9]): > 1200 µM
- cytotoxicity at 6 days (in vitro [1]; [9]): -10.5 to 12.7%
- maximum antiviral effect (HCoV-229E [2]; HCoV-229E): about 8%
- % Antiviral Activity (Range) (HCoV-229E [2]): -1.3 to +8.1%
- EC50 (HCoV-229E [2]; Human coronavirus 229E): > 1200 µM
- maximum cytotoxicity (MRC-5 cells; [10]): < 15%
- IC50 (recombinant SCoV-2 PLpro; IC50, 100 nM PLpro): ~127 µM and 127 µM

Compound: CC(C)CN(C[C@@H](O)[C@H](Cc1ccccc1)NC(=O)O[C@H]1CO[C@H]2OCC[C@H]21)S(=O)(=O)c1ccc(N)cc1 [Darunavir]
- cytotoxicity (in vitro [1]): -14.4 to 97.2%
- viability (in vitro [1]): 44.5%
- activity against SCoV-2 (in words) (SCoV-2 [4]): completely ineffective
- % Reduction in Viral Load (Range) (HCoV-229E [3]): 0.0 to +97.6%
- Log10 Reduction in Viral Load (Range) (HCoV-229E [3]): 0.0 to +1.62 Log10
- log10 inhibition / reduction in viral load (HCoV-229E [3]): 1.42 log10
- reduction in viral titers (HCoV-229E [3]): about 96%
- IC50 (recombinant SCoV-2 PLpro; 100 nM PLpro, read-out: IC50): 1320 ± 200 µM

Compound: OC[C@@H](O)[C@@H](O[C@@H]1O[C@H](CO)[C@H](O)[C@H](O)[C@H]1O)[C@H](O)[C@@H](O)CO [Lactitol]
- CC50 at 6 days (in vitro [1]; [9]): > 2900 µM
- cytotoxicity at 6 days (in vitro [1]; [9]): -8.9 to 1.8%
- maximum antiviral effect (HCoV-229E [2]; HCoV-229E): about 8%
- % Antiviral Activity (Range) (HCoV-229E [2]): -1.2 to +5.3%
- EC50 (HCoV-229E [2]; Human coronavirus 229E): > 2900 µM
- maximum cytotoxicity (MRC-5 cells; [10]): < 15%
- IC50 (recombinant SCoV-2 PLpro; IC50, 100 nM PLpro): 8800 ± 500 µM

Compound: C[C@H]1O[C@H](O[C@H]2[C@H](O)[C@@H](O)[C@@H](O[C@H]3[C@H](O)[C@@H](O)C(O)O[C@@H]3CO)O[C@@H]2CO)[C@H](O)[C@@H](O)[C@@H]1N[C@H]1C=C(CO)[C@@H](O)[C@H](O)[C@H]1O (stereo partly shown) [Acarbose]
- CC50 at 6 days (in vitro [1]): > 7750 µM
- cytotoxicity at 6 days (in vitro [1]): -15 to 7%
- maximum antiviral effect (HCoV-229E [2]; HCoV-229E): about 8%
- % Antiviral Activity (Range) (HCoV-229E [2]): +0.3 to +7.2%
- EC50 (HCoV-229E [2]; Human coronavirus 229E): > 7750 µM
- maximum cytotoxicity (MRC-5 cells; human): < 15%
- IC50 (recombinant SCoV-2 PLpro; IC50, 100 nM PLpro): 2000 ± 280 µM

Compound: CC(C)c1nc(CN(C)C(=O)N[C@H](C(=O)N[C@@H](Cc2ccccc2)C[C@H](O)[C@H](Cc2ccccc2)NC(=O)OCc2cncs2)C(C)C)cs1 [Ritonavir]
- cytotoxicity at 6 days (in vitro [1]; [9]): 20.6 to 100%
- protection from virus-induced CPE (HCoV-229E [2]; 70 μM, HCoV-229E, MRC-5): about 35%
- % Antiviral Activity (Range) (HCoV-229E [2]): -3.8 to +36.4%
- log10 inhibition / reduction in viral load (HCoV-229E [3]; 70 μM, HCoV-229E, MRC-5): ~0.6 log10
- reduction in viral titers (HCoV-229E [3]; 70 μM, HCoV-229E, MRC-5): 73.3%
- % Reduction in Viral Load (Range) (HCoV-229E [3]; [8]): +73.3 to -625.5%
- Log10 Reduction in Viral Load (Range) (HCoV-229E [3]; [8]): +0.57 to -0.86 Log10

Compound: CCC(CC)COC(=O)[C@H](C)N[P@](=O)(OC[C@H]1O[C@@](C#N)(c2ccc3c(N)ncnn23)[C@H](O)[C@@H]1O)Oc1ccccc1 [Remdesivir]
- % Cell Viability (Vero E6 cells; 10 µM, Vero E6, 30 h): 99.23%
- viability at 10 µM (in vitro [5]): > 99%
- % Inhibition (SCoV-2 N-positive cells) (SCoV-2 [6]; 10 µM, SCoV-2-infected Vero E6, 30 h): 99.2%
- cells protected from SCoV-2-induced CPE (SCoV-2 [6]; 10 μM, Vero E6): > 99%
- inhibition at 10 µM (SCoV-2 [6]; Severe acute respiratory syndrome coronavirus 2, Vero C1008, 30 h, 10 µM, SCoV-2-infected Vero E6, 30 h, read-out: % Inhibition (SCoV-2 N-positive cells)): > 99%

Compound: NC(=O)c1nc(F)c[nH]c1=O [Favipiravir]
- CC50 at 6 days (in vitro [1]): 665 µM
- cytotoxicity at 6 days (in vitro [1]): -8.1 to 67.5%
- protection from virus-induced CPE (HCoV-229E [2]; 250 μM, HCoV-229E, MRC-5): failed to show any obvious protection
- % Antiviral Activity (Range) (HCoV-229E [2]): -0.6 to +26.9%
- inhibition at 500 µM (HCoV-229E [2]; Human coronavirus 229E, MRC5, 500 μM, HCoV-229E, MRC-5, read-out: cells in which virus-induced CPE was inhibited): ~17%
- % Reduction in Viral Load (Range) (HCoV-229E [3]; [8]): 0.0 to +81.6%
- Log10 Reduction in Viral Load (Range) (HCoV-229E [3]; [8]): +0.74 to 0.0 Log10

Compound: OC(c1cc(C(F)(F)F)nc2c(C(F)(F)F)cccc12)C1CCCCN1 (stereo not shown) [Mefloquine]
- CC50 at 6 days (in vitro [1]; [9]): 173 µM
- cytotoxicity at 6 days (in vitro [1]; [9]): 11.5 to 93.2%
- protection from virus-induced CPE (HCoV-229E [2]; 120 μM, HCoV-229E, MRC-5): ~ 62% and ~ 60%
- % Antiviral Activity (Range) (HCoV-229E [2]): -0.4 to +60.6%
- EC50 (HCoV-229E [2]; Human coronavirus 229E): 108 µM
- viability at 30 h, 0.5 µM [7]: 93.2%
- viability at 30 h, 5 µM [7]: 45.6%
- cytotoxicity (Vero E6 cells; 0.5 μM): 7%
- cytotoxicity (Vero E6 cells; 5 μM): about 45%
- % Inhibition (SCoV-2 N-positive cells) (SCoV-2 [6]; 0.5 µM (500 nM), SCoV-2-infected Vero E6, 30 h, 0.5 µM): 30% and 30.6%
- inhibition at 0.5 µM (SCoV-2 [6]; Severe acute respiratory syndrome coronavirus 2, Vero C1008, 30 h, read-out: % Inhibition (SCoV-2 N-positive cells), 0.5 µM (500 nM), SCoV-2-infected Vero E6, 30 h): ~31%
- log10 inhibition of viral titers (HCoV-229E [3]; 120 μM, HCoV-229E, MRC-5): ~0.8 log10
- reduction in viral titers (HCoV-229E [3]; 120 μM, HCoV-229E, MRC-5): 84.7%
- % Reduction in Viral Load (Range) (HCoV-229E [3]; [8]): +84.7 to +38.4%
- Log10 Reduction in Viral Load (Range) (HCoV-229E [3]; [8]): +0.81 to +0.21 Log10
- IC50 (recombinant SCoV-2 PLpro; IC50, 100 nM PLpro): ~459 µM and 459 µM

Compound: Cc1cccc(C)c1OCC(=O)N[C@@H](Cc1ccccc1)[C@@H](O)C[C@H](Cc1ccccc1)NC(=O)[C@H](C(C)C)N1CCCNC1=O [Lopinavir]
- CC50 at 6 days (in vitro [1]): 67 µM
- cytotoxicity at 6 days (in vitro [1]): -9.6 to 99.9%
- Selectivity Index (CC50/EC50) (HCoV-229E [2]; HCoV-229E, MRC-5): 2.03
- % Antiviral Activity (Range) (HCoV-229E [2]): -6.3 to +72.4%
- EC50 (HCoV-229E [2]; Human coronavirus 229E): 33 µM
- log10 inhibition / reduction in viral load (HCoV-229E [3]; 40 μM, HCoV-229E, MRC-5): ~ 1.4 log10 and 1.42 log10
- reduction in viral titers (HCoV-229E [3]; 40 μM, HCoV-229E, MRC-5): about 96%
- % Reduction in Viral Load (Range) (HCoV-229E [3]; [8]): +96.2 to +29.1%
- Log10 Reduction in Viral Load (Range) (HCoV-229E [3]; [8]): +1.42 to +0.15 Log10
- IC50 (recombinant SCoV-2 PLpro; IC50, 100 nM PLpro): 1000 ± 100 µM

Compound: Cc1ccc(N)cc1C(=O)N[C@H](C)c1cccc2ccccc12 [GRL0617, (R)-5-amino-2-methyl-N-(1-(naphthalen-1-yl)ethyl) benzamide]
- CC50 at 6 days (in vitro [1]): 137 µM
- cytotoxicity at 6 days (in vitro [1]): 6.2 to 76%
- % Antiviral Activity (Range) (HCoV-229E [2]): -1.9 to +33.7%
- % Reduction in Viral Load (Range) (HCoV-229E [3]; [8]): Inconsistent
- Log10 Reduction in Viral Load (Range) (HCoV-229E [3]; [8]): Inconsistent

— PMC9127501 (Frontiers in Microbiology, 2022)
